Experimental data reported in the NIST ThermoML archive (doi:10.1021/je700406p).

Assay: wn = mass fraction of the nth substance listed
Details: Liquid, Vibrating tube method

CC(C)(N)CO [2-amino-2-methylpropan-1-ol] + O
Details	mass density [kg/m3]
342.92 K, 18002 kPa, w1 = 0.1997	979
342.92 K, 18994 kPa, w1 = 0.4976	961.7
342.92 K, 18999 kPa, w1 = 0.1997	979.2
342.92 K, 19993 kPa, w1 = 0.4976	962.1
342.92 K, 20029 kPa, w1 = 0.1997	979.8
342.92 K, 21004 kPa, w1 = 0.1997	980.2
342.92 K, 21021 kPa, w1 = 0.4976	962.5
342.92 K, 22004 kPa, w1 = 0.1997	980.6
342.92 K, 23001 kPa, w1 = 0.1997	981
342.92 K, 24005 kPa, w1 = 0.1997	981.5
342.93 K, 1004 kPa, w1 = 0.4002	962.4
342.93 K, 2006 kPa, w1 = 0.4002	962.8
342.93 K, 3009 kPa, w1 = 0.4002	963.3
342.93 K, 4013 kPa, w1 = 0.4002	963.7
342.93 K, 4998 kPa, w1 = 0.4002	964.2
342.93 K, 5995 kPa, w1 = 0.4002	964.6
342.93 K, 6996 kPa, w1 = 0.4002	965
342.93 K, 7995 kPa, w1 = 0.4002	965.5
342.93 K, 8994 kPa, w1 = 0.4002	965.9
342.93 K, 10004 kPa, w1 = 0.4002	966.3
342.93 K, 10993 kPa, w1 = 0.4002	966.8
342.93 K, 12000 kPa, w1 = 0.4002	967.2
342.93 K, 12990 kPa, w1 = 0.4002	967.6
342.93 K, 13993 kPa, w1 = 0.4002	968
342.93 K, 14985 kPa, w1 = 0.4002	968.5
342.93 K, 15999 kPa, w1 = 0.4002	968.9
342.93 K, 16987 kPa, w1 = 0.4002	969.3
342.93 K, 17994 kPa, w1 = 0.4002	969.8
342.93 K, 18984 kPa, w1 = 0.4002	970.2
342.93 K, 19987 kPa, w1 = 0.4002	970.6
342.93 K, 20996 kPa, w1 = 0.4002	971
352.84 K, 1007 kPa, w1 = 0.4002	954.4
352.84 K, 2012 kPa, w1 = 0.4002	954.9
352.84 K, 3000 kPa, w1 = 0.4002	955.3
352.84 K, 4011 kPa, w1 = 0.4002	955.8
352.84 K, 5007 kPa, w1 = 0.4002	956.3
352.84 K, 6009 kPa, w1 = 0.4002	956.7
352.84 K, 7008 kPa, w1 = 0.4002	957.2
352.84 K, 8014 kPa, w1 = 0.4002	957.6
352.84 K, 8988 kPa, w1 = 0.4002	958.1
352.84 K, 9986 kPa, w1 = 0.4002	958.5
352.84 K, 11001 kPa, w1 = 0.4002	959
352.84 K, 12004 kPa, w1 = 0.4002	959.5
352.84 K, 12991 kPa, w1 = 0.4002	959.8
352.84 K, 13986 kPa, w1 = 0.4002	960.3
352.84 K, 14991 kPa, w1 = 0.4002	960.8
352.84 K, 15997 kPa, w1 = 0.4002	961.2
352.84 K, 16988 kPa, w1 = 0.4002	961.6
352.84 K, 17995 kPa, w1 = 0.4002	962
352.84 K, 18987 kPa, w1 = 0.4002	962.5
352.84 K, 19995 kPa, w1 = 0.4002	962.9
352.84 K, 20986 kPa, w1 = 0.4002	963.3
352.85 K, 997 kPa, w1 = 0.2821	961.9
352.85 K, 2011 kPa, w1 = 0.2821	962.4
352.85 K, 2994 kPa, w1 = 0.2821	962.8
352.85 K, 4000 kPa, w1 = 0.2821	963.2
352.85 K, 5006 kPa, w1 = 0.2821	963.7
352.85 K, 6000 kPa, w1 = 0.2821	964.1
352.85 K, 6999 kPa, w1 = 0.2821	964.5
352.85 K, 7996 kPa, w1 = 0.2821	965
352.85 K, 8992 kPa, w1 = 0.2821	965.4
352.85 K, 9994 kPa, w1 = 0.2821	965.8
352.85 K, 10987 kPa, w1 = 0.2821	966.2
352.85 K, 12010 kPa, w1 = 0.2821	966.7
